Measured values from US5959109A, “Compounds and methods for increasing endogenous levels of corticotropin-releasing factor” (Neurocrine Biosciences, Inc., priority 1996, dated 1999).
Ends that are not written are not given here.

Assays:
CRF/CRF-BP complexes = experiment: ELISA of CRF/CRF-BP complex in NP-40 solubilized cerebrocortical brain tissue (FIG. 3); type: binding, human; conditions: post-mortem controls and Alzheimer's disease patients
Method: FIG. 3 is a graph displaying the results of ELISAs testing the ability of a representative ligand inhibitor, Compound No. 35, to displace endogenous CRF from CRF-BP in brain tissue from Alzheimer's disease patients and normal controls.
Another ligand inhibitor, Compound No. 35, was tested for its ability to inhibit CRF/CRF-BP complexes in NP-40 solubilized human cerebrocortical brain tissue obtained postmortem from controls and Alzheimer disease patients. Briefly, 0.1-0.5 g of brain tissue was homogenized in phosphate-buffered saline containing 0.2% NP-40. The homogenate was clarified by centrifugation at 3000×g for 10 minutes. Supernatants were assayed by ELISA for the formation of CRF/CRF-BP complex in the presence or absence of Compound No. 35.

human recombinant CRF-BP = target: T1, human recombinant CRF-BP (Homo sapiens, UniProt P24387); experiment: LIRMA: displacement of 125I-h/rCRF from CRF-BP, Ki; type: binding; conditions: inhibitory binding affinity constant (Ki)
T1 construct: made in house
T1 sequence (P24387 25-322): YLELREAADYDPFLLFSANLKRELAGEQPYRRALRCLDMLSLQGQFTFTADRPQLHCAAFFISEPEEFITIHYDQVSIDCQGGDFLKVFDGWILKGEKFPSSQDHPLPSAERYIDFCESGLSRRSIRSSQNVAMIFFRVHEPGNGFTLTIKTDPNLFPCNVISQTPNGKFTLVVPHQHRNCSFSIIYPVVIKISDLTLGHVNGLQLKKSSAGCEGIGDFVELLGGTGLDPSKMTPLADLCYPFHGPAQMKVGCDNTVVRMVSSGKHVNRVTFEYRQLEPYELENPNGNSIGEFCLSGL
Method: In LIRMA CRF-BP isolated from brain tissue, serum, or cells expressing a recombinant form, is added to wells of a 96-well plate, to small polypropylene microfuge tubes, or to glass borosilicate tubes in a binding buffer (0.02% NP-40 in 50 mM phosphate-buffered saline). ^125 I-h/rCRF (New England Nuclear) and the candidate ligand inhibitor at 10 μM are added and the reaction is incubated for 1 hour at room temperature. An appropriately diluted anti-CRF-BP antibody, such as a rabbit anti-hCRF-BP (Potter et al., Proc. Natl. Acad. Sci. USA 89:4192-4196, 1992) is added to each tube, and after further incubation, bound complexes are precipitated by the further addition of a goat anti-rabbit antibody. The precipitate containing ^125 I-CRF is collected by centrifugation and the amount of radioactivity in the pellet is determined by a gamma counter. If the candidate ligand inhibitor displaces CRF from CRF-BP, the pellets will contain less radioactivity in comparison to controls in which no candidate peptide is added. Maximum inhibition (i.e., 100%) of the binding of ^125 I-h/rCRF to the CRF-BP is defined by the amount of radioactivity left in the pellets after incubation with 10 μM of the CRF-BP peptide ligand h/rCRF (6-33). Thus, the binding potency of the candidate ligand inhibitor will be measured relative to the potency of the standard h/rCRF (6-33).
Thus, a ligand having a Ki of less than that of hCRF will bind more strongly to hCRF-BP than will hCRF itself, and a ligand having a higher value will have a relatively lower binding affinity.
The assay is performed in 600 μl polypropylene microfuge tubes or a 96-well plate. First, 50 μl of a 250 ng/ml of purified recombinant CRF-BP is added to 150 μl of PBS binding buffer (50 mM sodium phosphate, 0.15M NaCl, and 0.02% NP-40). Next, ^125 I-h/r CRF at a final concentration of 200 pM and 50 μl of a 10-100 μM concentration of the ligand inhibitor are added and incubated for 1 hour at room temperature. To the reaction, 50 μl of anti-CRF-BP antibody, 5144, diluted 1:1000 with assay buffer is added to each tube and allowed to bind for a further 1 hour at room temperature. The total volume in all tubes is adjusted to 300 μl with assay buffer. Bound complexes are precipitated by the addition of 200 μl of preprecipitated goat anti-rabbit (GAR) second antibody at 1:20 in 1% normal rabbit serum, 4% PEG, 50 mM sodium phosphate, 0.1% sodium azide, followed by incubation for 1 hour at room temperature. The antibody-bound ^125 I-CRF precipitate is then collected by centrifugation (3000×g) at 4° C. for 20 minutes in a Beckman GS-15R centrifuge. Using a Beckman Biomer 1000 robotic workstation, the tubes are aspirated and washed once with 600 μl of PBS plus 0.02% NP-40. Tubes containing the pellets are then transferred to 12×74 mm counting tubes and counted in a gamma counter.
Inhibitory binding affinity constant (Ki) values are determined using the method of Munson et al., Anal. Biochem. 107:220, 1980.

[1] = Automated passive avoidance learning; type: in vivo, rat; conditions: oral, 5 minutes after training period; FIGS. 5A, 5B
Method: FIGS. 5A and 5B are graphs depicting the effect of administration of representative ligand inhibitors of this invention, Compound Nos. 97-1 and 153, respectively. The ligand inhibitors were administered 5 minutes post-training period in the passive avoidance test.
The apparatus for both rats and mice is the same as used in active avoidance testing (see Example 14).
For the training trial, the animal is placed individually in one compartment of the learning apparatus, which is separated from a second compartment by a guillotine door. Following a three minute habituation period, the door is opened and the latency to enter the second compartment is recorded. When the animal enters with all four paws, the door is closed, and a 0.5 second AC footshock (Coulburn precision shocker) is delivered. After five seconds, the subject is removed and placed in its home cage. At the time of testing (usually 1-7 days later), the animal is returned to the compartment in which it was initially placed for the learning trial, the door is opened and the latency to enter the second compartment is recorded, but the animal is not shocked. […]
For most strains of rats with weights between 150 and 350 grams, an effective footshock intensity ranges from 0.2-1.0 mA. […] The latency time of rats to enter the dark compartment is measured. […]

CRF receptors = conditions: rat, in vivo; cited from earlier work
[2] = tested on: CRF receptors (rat anterior pituitary cells); experiment: ACTH secretion from rat anterior pituitary cells (CRF agonist/antagonist activity); type: cell-based; conditions: for CRF agonist activity relative to standard oCRF: oCRF arbitrarily 1.0
Method: Candidate ligand inhibitors may be screened for their ability to displace CRF from the CRF/CRF-BP complex by biological assay or by in vitro assay. One suitable biological assay is the measurement of ACTH release from cultured pituitary cells. This assay is performed in the following manner. Anterior pituitary glands from rats are washed six times with sterile HEPES buffer and transferred to a solution containing collagenase. After subsequent transfer to a 25 ml Bellco dispersion flask, the pituitaries are stirred for 30 minutes at 37° C., triturated, incubated for a further 30 minutes, and again triturated. The partially dispersed cells are then collected by centrifugation. The cell pellet is resuspended in 10 ml of neuraminidase and again collected by centrifugation. The pellet is reconstituted in 25 ml of BBM-P (BBM (Irvine Scientific) plus 100 μg/L, cortisol, 1 μg/L insulin, 0.1 μg/L EGF2, 0.4 μg/L T3, 0.7 μg/L PTH, 10 μg/L glucagon, and 2% fetal bovine serum), centrifuged again, and the resultant pellet is finally reconstituted in BBM-P. The cells are then plated at a density of 50,000-100,000/well in a 48 well plate and incubated for 2 days. On the day of assay the cells are washed once with BBM-T in preparation for stimulation with the peptide candidates or CRF. Cells are stimulated with a maximally stimulating dose of h/rCRF (1 nM) and ACTH release is measured by RIA or immunoradiometric assay. When a blocking concentration of CRF-BP is added, the amount of ACTH that is released is reduced and expressed as a fraction of the maximal release. The ligand inhibitor is added at various doses. The potency of the peptide in displacing CRF from CRF-BP is measured by the amount of ACTH release expressed as a fraction of the maximal release caused by CRF given alone.
An additional assay using rat anterior pituitary cells to measure ACTH secretion can be carried out to determine whether a ligand inhibitor functions as a CRF agonist of hCRF receptors. […] Antagonistic action may be determined by performing the assay in the presence of a challenge dose of CRF. […]

human CRF-BP = conditions: cited from earlier work
[3] = cited from earlier work

## O=c1oc2ccc(Cl)cc2c(O)c1C=Nc1nc2ccccc2s1 [Compound 35]
CRF/CRF-BP complexes
  inhibition of formation of CRF/CRF-BP complexes in brain tissue: inhibits formation of CRF/CRF-BP complexes in brains of controls and Alzheimer's disease patients

## O=c1c(C=Nc2nc3ccccc3[nH]2)c(O)n(CCCc2ccccc2)c(=S)n1CCCc1ccccc1 [Compound 97-1]
Human recombinant CRF-BP
  Ki: < 0.05 µM
[1]
  latency time to entering the dark compartment: increase in medium latency time

## CN1[C@@H]2CC[C@H]1C[C@@H](OC(=O)C(CO)c1ccccc1)C2 (stereo partly shown) [atropine]
CRF receptors
  CRF receptors after treatment: increase in CRF receptors

## hCRF (6-33): CRF-BP peptide ligand h/rCRF (6-33) (ISLDLTFHLLREVLEMARAEQLAQQAHS; Corticoliberin; UniProt P06850 159-186, looked up, fragment)
[2]
  CRF antagonist activity: does not exhibit substantial CRF antagonist activity
  CRF agonist activity relative to standard oCRF: less than 0.1%

## hCRF (9-33): The peptide hCRF (9-33) (DLTFHLLREVLEMARAEQLAQQAHS; Corticoliberin; UniProt P06850 162-186, looked up, fragment)
[2]
  CRF agonist activity relative to standard oCRF: less than 0.01%

## urocortin: the human neuropeptide urocortin (DNPSLSIDLTFHLLRTLLELARTQSQRERAEQNRIIFDSV; ends and bridges not checked; UniProt P55089 83-122, looked up)
Human CRF-BP
  affinity for CRF-BP: high affinity
[3]; animals
  feeding behavior: significantly suppress feeding behavior in animals
[3]; in vivo
  blood pressure: lowering blood pressure
